# Measured values taken from patent US9687553B2, “Polymeric nanocarriers with linear dual response mechanism” (priority 2010, dated 2017).
# Columns and labels:
# [1] = Relaxivity versus time, bench top contrast agent analyzer; format: physicochemical
# Text: To probe the relationship between degradation and relaxivity further, real-time T1 measurements were taken of the polymer solutions using a Bruker minispec mq60 bench top contrast agent analyzer. This machine is able to take rapid T1 measurements over a long duration, allowing for real-time data to be collected. Following data collection, a relationship between T1 and relaxivity can be made, and the relaxivity can be plotted versus time. The relaxivity measurements were then normalized for direct comparison between the two polymer CAs.
# Samples were first incubated at 37° C. and various pH values and then measured continuously over time.
# To investigate the change in relaxivity over time at different pH values further, continuous T1 measurements were taken using a bench top contrast agent analyzer. Using this machine, the T1 time of a 200 μl solution in an NMR tube is able to be measured. Furthermore, the measurement duration is short, allowing for a more real-time investigation of the T1 time. Finally, the software allows for sequential measurements to be performed, allowing for over 24 h of continuous T1 data to be taken.
# Solutions of both polymer contrast agents were prepared at the desired pH values and pre-incubated for 5 min at 37° C. prior to T1 measurements. […]
# [2] = Gd chelate; cited from earlier work
# HCT116 cells = test: Transfection and EGFP expression, microscopy and flow cytometry; format: cell-based; conditions: 300 nM bafilomycin A1, nanocarrier delivery
# Protocol: Expression and transfection efficiency of the HCT116 cells was tested by incubating them for 4 hr before washing excess nanocarriers and incubating cells in fresh media for 48 hr. […] PLGA-treated cells only had 2% of the cell population with signal intensity above background.
# Immediate burst degradation and release of DNA from the dual pH-responsive nanocarriers only occurs in an environment of low pH. The endosome's low pH offers the appropriate stimulus to solubilize the polymer, resulting in an accelerated degradation via ketal hydrolysis. Bafilomycin A1, an inhibitor of V-ATPase, blocks the acidification of endosomes and has been previously used to characterize the mechanism of release of pH dependent polyplexes and nanocarriers. […] EGFP expression via nanocarrier delivery in HCT116 cells, measured by mean fluorescence, was affected by the presence of bafilomycin A1, causing 66% reduction in signal relative to non-treated cells (FIG. 37). […]
# HCT116 cells were plated at a ˜50% density in a 24 well culture plate and allowed to attach overnight. […] The cells were then incubated for 48 hours and subsequently analyzed by fluorescence microscopy (Nikon) or flow-cytometry (Accuri C6) to detect green fluorescence. […] For flow cytometry, cells were first trysonized for […] followed by two washes with PBS and analyzed immediately. […]
Molecule,relaxivity as measured [1],stability constant (log K) [2],reduction in EGFP signal (mean fluorescence) relative to non-treated cells (HCT116 cells)
O=C([O-])CN(CCN(CC(=O)[O-])CC(=O)O)CCN(CC(=O)[O-])CC(=O)O.[Gd+3] [Gd-DTPA],3.64 ± 0.12 mM⁻¹ s⁻¹,22.46,
CO/C1=C\C(C)=C\[C@@H](C)[C@@H](O)[C@@H](C)C/C(C)=C/C=C/[C@H](OC)[C@@H]([C@@H](C)[C@@H](O)[C@H](C)[C@@]2(O)C[C@@H](O)[C@H](C)[C@@H](C(C)C)O2)OC1=O [bafilomycin A1],,,66%
Gd-DTPA-bisamide,,16.84,
